According to article PMC9995496, “A screen for MeCP2-TBL1 interaction inhibitors using a luminescence-based assay” (Scientific Reports, 2023):
Where two headings read alike, the source gives them in different places.

Legend:
[1] = biological target: T1, MeCP2-TBL1 interaction (MeCP2-SmBiT / TBL1-LgBiT) (Mus musculus, UniProt Q9QXE7); assay: MeCP2-TBL1 NanoLuc luciferase complementation assay (cell-free, extracts of transfected HEK293 cells); type: binding, human; settings: for IC50: dose response 0.3–60 μM, triplicate, 30 min, luminescence normalized to DMSO, read-out: IC50, inhibition of MeCP2-TBL1 luminescence signal; for Inh (MeCP2-TBL1): ApexBio FDA-approved Drug Library screen, 20 µM
T1 construct: expressed in transfected cells; crude lysate used as a cell-free assay
T1 sequence (Q9QXE7 166-527): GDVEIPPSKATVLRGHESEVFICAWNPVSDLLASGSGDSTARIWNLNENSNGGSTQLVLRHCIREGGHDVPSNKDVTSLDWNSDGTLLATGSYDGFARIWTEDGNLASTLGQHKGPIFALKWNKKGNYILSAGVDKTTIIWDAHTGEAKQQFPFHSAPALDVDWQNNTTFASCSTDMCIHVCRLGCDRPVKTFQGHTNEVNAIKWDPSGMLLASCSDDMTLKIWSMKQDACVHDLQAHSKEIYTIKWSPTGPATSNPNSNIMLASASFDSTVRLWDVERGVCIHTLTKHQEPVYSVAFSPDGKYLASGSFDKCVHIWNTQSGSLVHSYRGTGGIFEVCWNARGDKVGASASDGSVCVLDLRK
Outline: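 Cell-free split NanoLuc: lysate of HEK293 cells co-expressing the MeCP2 C-terminal half-SmBiT and TBL1 WD domain-LgBiT, mixed 1:1 with furimazine. After 30 min at room temperature, luminescence was plate-median normalized.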

[2] = tested on: PRKACA-PRKAR2A interaction (SmBiT-PRKACA / LgBiT-PRKAR2A), protein kinase A; assay: PKA-based NanoLuc complementation control assay (counter-screen); type: binding, human; design: Inh (PKA): unit not given here; settings: 20 µM; for Inh (PKA): ApexBio FDA-approved Drug Library screen
Text: To distinguish such false positives from genuine inhibitors of the interaction between MeCP2 and TBL1/TBLR1, a control screen is essential, utilising the same NanoLuc SmBiT and LgBiT fragments, but with an unrelated protein interaction pair. The interaction between PRKACA and PRKAR2A, which are the catalytic and regulatory subunits of human protein kinase A (PKA) respectively, has previously been measured using a NanoLuc complementation assay. We tested this pair of interacting proteins for activity in a NanoLuc complementation assay under our conditions. […] We therefore selected the PKA-based NanoLuc complementation as a suitable control assay. The effects of the four compounds identified from the Asinex library were assessed in the control PKA-based NanoLuc assay.
The AgeI-NotI restriction fragment (encoding EGFP) was then replaced with a codon optimized SmBiT sequence to yield the MeCP2-SmBiT expression plasmid. […]
In the screens described here, the lysate obtained from a single 15 cm plate was used for 2.5 384-well assay plates. […] After 30 min incubation at room temperature, luminescence was measured on a Tecan M1000 multi-mode plate reader. Raw luminescence reads from each well on each plate were normalized to the median luminescence signal for that plate. […] After plate normalization the robust SSMD (SSMD*) was calculated as described elsewhere. […]
Assays were performed as described above except instead of a single concentration, a threefold serial dilution ranging from 60 to 0.03 μM was tested in triplicate for each of the compounds. Half-maximal inhibitory concentrations were calculated using global nonlinear regression by fitting the response data sets of all compounds simultaneously with a four-parameter logistic curve of log inhibitor concentration versus normalized luminescence using GraphPad Prism. […] The luminescence signal of each compound concentration was normalized by dividing the luminescence signal of the DMSO control.

[3] = tested on: PRKACA-PRKAR2A interaction (SmBiT-PRKACA / LgBiT-PRKAR2A), protein kinase A; design: NanoLuc complementation counter-screen in cell extract, PRKACA with PRKAR2A, loss of luminescence, detects NanoLuc interference; settings: counter-screen for NanoLuc interference; 0.5 h, 20 µM; inhibitor
Description: In the screens described here, the lysate obtained from a single 15 cm plate was used for 2.5 384-well assay plates. NanoLuc substrate (furimazine) (Promega, N1110) was diluted 1000-fold in passive lysis buffer (Promega, E1941) and added 1:1 to the lysate. Screening libraries were purchased from Asinex[40] and ApexBio (FDA-approved Drug Library, L1021). Compounds were dispensed using an Echo acoustic dispenser and tested at a final concentration of 20 µM in a total assay volume of 20 μl in 384-well plate format. DMSO was added to each well at a final concentration of 0.2% (v/v) and wells containing only DMSO were used as negative control. After 30 min incubation at room temperature, luminescence was measured on a Tecan M1000 multi-mode plate reader. Raw luminescence reads from each well on each plate were normalized to the median luminescence signal for that plate. […] After plate normalization the robust SSMD (SSMD*) was calculated as described elsewhere. […] The interaction between PRKACA and PRKAR2A, which are the catalytic and regulatory subunits of human protein kinase A (PKA) respectively, has previously been measured using a NanoLuc complementation assay. […] The effects of the four compounds identified from the Asinex library were assessed in the control PKA-based NanoLuc assay. […]

TBLR1 = biological target: T2, TBLR1 (Homo sapiens, UniProt Q9BZK7); assay: MeCP2 peptide SPOT array probed with recombinant HIS6-tagged TBLR1; type: binding; settings: recombinant HIS6-tagged TBLR1 2 µM
T2 sequence (Q9BZK7 1-514): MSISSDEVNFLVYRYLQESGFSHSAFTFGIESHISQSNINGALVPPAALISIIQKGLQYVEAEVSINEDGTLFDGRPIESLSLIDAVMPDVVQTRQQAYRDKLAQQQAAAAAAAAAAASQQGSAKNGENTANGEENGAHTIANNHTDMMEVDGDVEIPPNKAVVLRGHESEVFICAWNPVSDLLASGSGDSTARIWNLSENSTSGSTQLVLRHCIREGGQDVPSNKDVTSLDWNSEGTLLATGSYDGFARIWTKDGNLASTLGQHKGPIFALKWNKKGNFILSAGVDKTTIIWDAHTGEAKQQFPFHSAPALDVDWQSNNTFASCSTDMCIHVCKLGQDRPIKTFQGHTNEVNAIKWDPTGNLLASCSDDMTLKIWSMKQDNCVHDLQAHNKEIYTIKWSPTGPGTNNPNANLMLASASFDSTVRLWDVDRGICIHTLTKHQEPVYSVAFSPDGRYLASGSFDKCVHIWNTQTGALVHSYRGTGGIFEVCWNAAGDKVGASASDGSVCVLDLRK
Description: The Z-factor is a statistic frequently used to assess the suitability of an assay for high throughput screening. We calculated the Z-factor of our assay in 384-well plate format using a short 12 residue MeCP2 NID derived-peptide variant as positive control and DMSO as negative control.
Western blotting was performed using antibodies against NanoLuc (Promega), MeCP2 (Sigma, M6818) and Sin3A (Abcam, Ab3479). […] The biotin at the N-terminus of these peptides was not relevant to the experiments in this work. […] The array membrane was incubated with recombinant HIS6‐tagged TBLR1 (2 µM) and immunodetection was performed with anti-HIS antibody (Sigma, H1029). Uniform synthesis efficiency across the array was ascertained by UV absorption. […] Note the shorter N-terminus and longer C-terminus of this peptide compared to the sequences used on the SPOT array. UMT026-2 was used at 50 µM when calculating the Z-factor[39].
The wild-type amino acids at these positions (Pro, Ile, Lys and Lys) make directs contacts with TBLR1. Arrows denote spots with increased binding and red dots indicate the wild-type amino acid.

IC50 [1] [µM]	Inh (MeCP2-TBL1) [1]	Inh (PKA) [2]	Compound	other results
18			C[C@H]1CC[C@H]2[C@H](O1)c1cc(OCC(=O)NCc3ccccc3)ccc1OC2(C)C [BDG 34039627]	extent of MeCP2-TBL1 inhibition reached within the tested concentration range ([1]; 0.3–60 μM): able to return the luminesce signal back to baseline; separation between MeCP2-TBL1 inhibition and inhibition of the PKA control in dose response ([1]; 0.3–60 μM, PKA-based assay run in parallel): clear separation; effect on luminescence in PKA control assay ([2]; n = 3): did not cause a reduction in luminescence
	10.5772	14.6502	Oc1ccc(Nc2nc(-c3ccc(Cl)cc3)cs2)cc1 [SKI II, reference compound]	
			C=C1C(=O)O[C@@H]2[C@H]3O[C@]3(C)CC/C=C(\C)CC[C@@H]12 [UM0142841:01, Parthenolide]	Inh (PKA) [3]: 0.7412%
	12.6933	33.916	COc1ccc(/C(Cl)=C(/C=O)c2ccc(OC)cc2)cc1 [Windorphen, reference compound]	
~40			Ac-ETVLPIYKRKTR-NH2 [K304Y mutant peptide]	TBL1/TBLR1 binding on peptide SPOT array relative to wild type (TBLR1): stronger TBL1/TBLR1 binder
